One assay deals with LNCaP cells. The assay can be described thus: Annexin V cell death assay (flow cytometry). Format: cell-based, human. As to conditions: parental LNCaP cells and un-induced LNCaP-DBD sublines; etoposide 10 μM; 24 h. On the procedure:
Surface expression of phosphadtidyl serine was determined by Annexin V staining (Trevigen) according to the manufacturer's recommendations. Briefly, LNCaP cells (2-5×10^5) were harvested, washed in PBS and exposed to FITC-labeled Annexin V. To exclude staining of phosphadtidyl serine on the inner surface of the cell membrane, indicative of cytoplasmic membrane disintegration, cells were counterstained with propidium iodite. FITC-Annexin V and propidium iodite staining was determined using a FACStar Plus flow cytometer (Becton Dickinson FACS System). Apoptotic cells were defined as FITC positive and PI negative.

In assay [1] the test system is LNCaP cells stably transfected with pPSA (e/p)-DBD/F. The assay can be described thus: Androgen-regulated PARP-DBD expression (Western blot, RT-PCR, in situ immunofluorescence) in stably transfected LNCaP cells. Format: cell-based, human. As to conditions: R1881 0-10 nM, 24 hours, charcoal-stripped serum for seven days. On the procedure:
The androgen responsive prostate carcinoma LNCaP and androgen independent PC-3 cell lines were obtained from American Type Culture Collection (Manassas, Va.) and maintained by serial passage in DMEM supplemented with 10% fetal bovine serum, 100 units/ml penicillin, and 100 μg/ml streptomycin at 37° C. in an atmosphere of 5% CO2 in air. Cells subjected to androgen stimulation tests were maintained in media with 10% charcoal-stripped fetal bovine serum for seven days before the addition of synthetic androgen R1881 (Perkin Elmer Life Science). […]
RNA was isolated from cells using TRIzol Reagent (Gibco) according to manufacturer's protocol. […] The amplified RT-PCR products were analyzed by 1% agarose gel electrophoresis, visualized by ethidium bromide staining and photographed under UV illumination.
Immunodetection of PARP-DBD Flag-fusion protein in human prostate carcinoma cells was performed as previously described (Soldatenkov et al., Cancer J Sci. Am., 3: 13-20 (1997)). […] Insoluble material was removed by centrifugation at […] for 30 min at 16,000×g and protein concentrations were determined using the “Micro BCA protein assay” (Pierce). […] Signals were detected using the enhanced chemiluminescence system (Amersham). […]
Background: A western blot detects proteins with antibodies after separation by electrophoresis.

The next assay concerns plasmid DNA fragments. Description: Atomic force microscopy of PARP / PARP-DBD interaction with DNA. Format: binding. On the procedure: DNA samples or PARP-DNA binding reaction product in Mg^2+containing buffer were deposited on an […] mica surface, allowed to adsorb for 1 min, rinsed with deionized water, and dried in a gentle nitrogen flow. The AFM images were obtained using a NanoScope IIIa instrument equipped with E-scanner (Digital Instruments, Santa Barbara, Calif.) operating in a tapping mode in air as described (Smulson et al., Cancer Res., 58: 3495-3498 (1998)). The tapping frequency of the 125 μm silicon cantilever was 300-400 KHz and the nominal scanning rate was set at 1-2 Hz. No less than 150 uncomplexed DNA molecules and 100 of PARP-DNA complexes were analyzed in each experiment.

Results on three compounds are retold here after patent US20040067904A1, “Gene therapy for prostate cancer: sensibilization of cells to dna damaging drugs and radiation” (priority 2003, published 2004).

For `COc1cc([C@@H]2c3cc4c(cc3[C@@H](O[C@@H]3O[C@@H]5CO[C@@H](C)O[C@H]5[C@H](O)[C@H]3O)[C@H]3COC(=O)[C@H]23)OCO4)cc(OC)c1O` [etoposide], the “annexin V-binding activity (early apoptotic changes)” value in the assay on LNCaP cells is listed as “only modest increase”.

As to `C[C@]1(O)CC[C@H]2[C@@H]3CCC4=CC(=O)CCC4=C3C=C[C@@]21C` [R1881], the “stimulation of PARP-DBD expression at levels of mRNA and protein” value in assay [1] was “dose-dependent stimulation”.

For the compound “Poly(ADP-ribose) polymerase [recombinant full length PARP]”, the “binding to DNA fragments (AFM)” value was “bound plasmid DNA fragments and linked them into chainlike structures” with plasmid DNA fragments (absence of NAD+); “dissociated from the DNA fragments” in the assay with plasmid DNA fragments (presence of NAD+).
